Converted amounts (≈) assume the structure as drawn.
Assays:
Format in all cases: functional
Details in all cases: read-out: ED50 (the source's name)
Lu1 = test: Cytotoxicity against human Lu1 cells
LNCaP = test: Cytotoxicity against human LNCAP cells
MCF7 = test: Cytotoxicity against human MCF7 cells

| SMILES | EC50 (Lu1) [µg/mL] | EC50 (LNCaP) [µg/mL] | EC50 (MCF7) [µg/mL] |
| --- | --- | --- | --- |
| CC1=C(C)C(=O)O[C@@H]([C@]2(C)OC(=O)[C@]34CC[C@H]5[C@@H](C[C@H]6O[C@]67[C@@H](O)CCC(=O)[C@]57C)[C@@H]3CC[C@H]24)C1 (relative stereo) [WITHAPHYSALIN N] | 9.3 (≈ 19.2 µM) | > 20 | 15 (≈ 31 µM) |
| CCOC1O[C@@](C)([C@H]2CC(C)=C(C)C(=O)O2)[C@H]2CC[C@H]3[C@@H]4C[C@H]5O[C@]56[C@@H](O)C=CC(=O)[C@]6(C)[C@H]4CC[C@]123 (relative stereo) [WITHAPHYSALIN O] | 0.16 (≈ 0.312 µM) | 0.9 (≈ 1.76 µM) | 1 (≈ 1.95 µM) |
| CC1=C(C)C(=O)O[C@@H]([C@]2(C)OC(=O)[C@]34CC[C@H]5[C@@H](C[C@H]6O[C@]67[C@@H](O)C=CC(=O)[C@]57C)[C@@H]3CC[C@H]24)C1 (relative stereo) [WITHAPHYSALIN M] | 0.22 (≈ 0.456 µM) | 1 (≈ 2.07 µM) | 1.2 (≈ 2.49 µM) |

From ChEMBL document CHEMBL1151188, “Cytotoxic withaphysalins from the leaves of Acnistus arborescens” (2004)
